The record followed here is patent publication US12595269B2, “Morpholine-like monoamine releasers” (Solvonis Therapeutics Ireland Holdings Limited, priority 2022, dated 2026).

Each structure is given as a SMILES string.

One data set deals with T1, human DAT (Homo sapiens, UniProt Q01959).
T1 construct: expressed in transfected cells; host or cells: CHO
As to the kind of experiment: DAT uptake scintillation proximity assay, inhibition of [3H]-dopamine uptake in hDAT-CHO cells. Type of data set: cell-based. The following applies: read-out: DAT update pIC50 (converted). As for the experimental part: Overview: Eighty-eight compounds were tested in SERT (serotonin transporter) and DAT (dopamine transporter) uptake assays (completed as scintillation proximity assays, or SPAs, in a recombinant CHO cell line). Fifty-two compounds were tested in release assays for 5-HT and DA release in rat synaptosomes.
Methods and Procedure-Uptake: The potency of the compounds described herein for inhibiting DAT function was measured using an uptake assay in a recombinant CHO cell line stably expressing human DAT (hDAT-CHO). Potency was measured in terms of pIC50 by testing for inhibition of [^3H]-dopamine uptake in hDAT-CHO cells in a 384-well format scintillation proximity assay (SPA).
Briefly, on experiment days, hDAT-CHO cells were detached using Versene and added at a density of approximately 300,000 cells/mL to the SPA Mixture, which contains the following components in Assay Buffer (20 mM HEPES, 145 mM NaCl, 5 mM KCl, 2 mM CaCl2, 1 mM MgCl2, 5.5 mM glucose, 0.01% Pluronic F127, pH 7.3): 0.75 mg/mL SPA Imaging beads (RPNQ0001, PerkinElmer), 10 μM pargyline and 80 nM of [^3H]-dopamine (NET673, PerkinEImer). The SPA Mixture was added 20 μL/well to 384 well plates containing 0.1 μL/well of test compound in neat DMSO (11 points of 1:5 serial dilution, 0.5% DMSO final) or 0.1 μL of DMSO (total uptake) or 0.1 μL of the standard inhibitor indatraline (at 1 μM final concentration, as nonspecific uptake). Plates were sealed with a Top-seal A and read using a Microbeta counter (PerkinEImer) after 45 minutes of incubation at room temperature.
For both tests, the raw experimental data (cpm) were elaborated for the determination of pIC50/IC50 values as % inhibition of specific uptake. Concentration-response curves of MDMA, MDDMA, citalopram and GBR-12909 were used as internal standards in all experiments, and the signal window was monitored in each plate performing Z′ calculations, as described in Zhang et al., J. Biomol. Screen., 1999; 4: 67-73.
A general note: In a scintillation proximity assay essentially only radioactivity close to the scintillant gives light.

Data set [1] in a line: In vitro intrinsic clearance in rat liver microsomes. Type of data set: in vitro ADME. The following applies: pH 7.4, read-out: Intrinsic clearance (μL/min/mg protein) rat. As for the experimental part:
Methods and Procedure: The general procedure involves incubating test compounds with liver microsomes and subsequently detecting the compounds to determine intrinsic clearance. Clearance was estimated from the rate of depletion k (min−1), the volume of the incubation V (mL), and the amount of microsomal proteins in the incubation M (mg). Intrinsic clearance is defined by the following equation: Clint k*V/M.
Values for CLint are expressed as μL/min/mg protein. Verapamil and dextromethorphan were used as positive controls for CYP3A4 and CYP2D6 isoforms, respectively, to confirm metabolic activity.
Positive control and compounds for testing were dissolved in an appropriate solvent to obtain a 10 mM stock solution, which was diluted to achieve a final working solution, as detailed in the above table. Stock solutions were usually prepared at 10 mM DMSO, whereas working solutions were made by adding 5 μL 10 mM DMSO+995 μL MeOH. However, this concentration can be varied, e.g., when the test item is not soluble in the selected solvent.
Prior to experimentation, frozen liver microsomes were thawed in a water bath at 37° C. and kept on ice until use. The microsomes were then diluted with 50 mM potassium phosphate buffer pH 7.4 to a protein concentration of 0.56 mg/mL. To prepare test and control items in final incubation conditions, 5 μL of test compound and positive control working solutions were added to 445 μL of microsomes incubation mixture at 0.56 mg/mL and 50 μL of regenerating system.
As it relates to the automated incubation procedure for microsomes incubation, the following procedure was followed: • 1. 150 μL of quenching solution (ACN containing an appropriate Internal Standard, i.e. Rolipram and Diclofenac for positive and negative ion mode, respectively) was manually dispensed or dispensed by using the Hamilton system in each well of 96 deep well 1 mL plates. • 2. 800-1000 μL-aliquots of NADPH regenerating system were pre-warmed at 37° C. for 5 minutes. • 3. 5 μL of 50 μM test items and control were added to 445 μL of the 0.56 mg/mL microsomes solution, and the incubation mixture was pre-warmed in a 96 deep well 2 mL plate (incubation plate) at 37° C. for 5 minutes. • 4. […] Metabolic stability was calculated from the ratio of peak area of the remaining test or control item with internal standard versus time. • 9. […] The integrated peak areas of the test and control items at the selected time points were divided by the respective peak areas of the IS, and the percent of parent remaining was calculated by normalizing the peak area ratio of parent to IS at 0 min. Observed rate constant (kobs) for parent degradation was calculated by determining the slope of the line of the graph of the natural log of percentage parent remaining versus time of incubation. […]
For orientation: Liver microsomes are vesicles of endoplasmic reticulum, rich in cytochrome P450 enzymes.

T1 sequence (Q01959 whole entry): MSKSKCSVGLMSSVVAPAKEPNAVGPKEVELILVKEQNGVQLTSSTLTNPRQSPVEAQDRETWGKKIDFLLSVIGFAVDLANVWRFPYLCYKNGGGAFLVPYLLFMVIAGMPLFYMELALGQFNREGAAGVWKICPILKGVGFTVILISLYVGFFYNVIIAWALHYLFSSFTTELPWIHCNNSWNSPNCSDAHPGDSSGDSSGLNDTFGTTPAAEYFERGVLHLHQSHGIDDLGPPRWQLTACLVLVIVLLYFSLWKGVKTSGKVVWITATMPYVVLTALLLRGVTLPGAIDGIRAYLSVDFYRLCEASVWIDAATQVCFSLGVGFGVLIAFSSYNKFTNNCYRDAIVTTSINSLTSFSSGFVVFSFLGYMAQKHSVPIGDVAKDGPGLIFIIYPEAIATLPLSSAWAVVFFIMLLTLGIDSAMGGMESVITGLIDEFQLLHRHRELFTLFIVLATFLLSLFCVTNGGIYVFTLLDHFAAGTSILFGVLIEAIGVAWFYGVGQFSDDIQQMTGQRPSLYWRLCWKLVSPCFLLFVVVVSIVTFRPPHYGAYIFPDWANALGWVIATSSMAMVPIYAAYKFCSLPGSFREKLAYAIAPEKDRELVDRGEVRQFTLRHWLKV

Consider `Clc1ccc(C23CNC(CO2)C3)cc1Cl` (stereo not shown) [522A, 1-(3,4-dichlorophenyl)-2-oxa-5-azabicyclo[2.2.1]heptane], for which the IC50 at human DAT was 63.1 nM. Besides, the microsomal CLint at 0.5 µM in data set [1] was 83 µL/min/mg.
As for `Clc1ccc([C@@]23CN[C@@H](CO2)C3)cc1Cl` (single isomer, unassigned) [518A], the IC50 on human DAT was 89.1 nM. Besides, in data set [1], the microsomal CLint at 0.5 µM is 268 µL/min/mg.
In the same order, the values of `Clc1ccc([C@]23CN[C@H](CO2)C3)cc1Cl` (single isomer, unassigned) [516A] are 72.4 nM and 167 µL/min/mg.
Regarding `CNC(C)Cc1ccc2c(c1)OCO2` (stereo not shown) [MDMA, reference compound], the microsomal CLint at 0.5 µM in data set [1] was found to be 171 µL/min/mg.
